{"source": "patent US5852014A", "about": "“Condensed indole derivatives as 5HT4 -receptor antagonists” (SmithKline Beecham p.l.c., priority 1992, dated 1998)", "key": {"5-HT4 receptor [1]": {"biological_target": "T1, 5-HT4 receptor (Cavia porcellus, UniProt O70528)", "T1 sequence (O70528 whole entry)": "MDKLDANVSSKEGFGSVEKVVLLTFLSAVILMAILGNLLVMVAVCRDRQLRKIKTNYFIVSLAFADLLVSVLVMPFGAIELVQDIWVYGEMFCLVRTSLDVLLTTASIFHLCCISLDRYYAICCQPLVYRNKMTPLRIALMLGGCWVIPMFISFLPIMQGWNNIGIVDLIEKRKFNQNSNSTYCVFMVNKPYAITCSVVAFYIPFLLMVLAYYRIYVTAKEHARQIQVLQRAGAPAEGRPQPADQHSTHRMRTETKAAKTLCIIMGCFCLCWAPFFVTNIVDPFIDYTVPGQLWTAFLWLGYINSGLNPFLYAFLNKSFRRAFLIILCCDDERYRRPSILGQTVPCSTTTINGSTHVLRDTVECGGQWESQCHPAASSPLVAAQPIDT", "method": "Male guinea-pigs, weighing 250-400 g are used. Longitudinal muscle-myenteric plexus preparations, approximately 3 cm long, are obtained from the distal colon region. These are suspended under a 0.5 g load in isolated tissue baths containing Krebs solution bubbled with 5% CO2 in O2 and maintained at 37° C. In all experiments, the Krebs solution also contains methiothepin 10^-7 M and granisetron 10^-6 M to block effects at 5-HT1, 5-HT2 and 5-HT3 receptors."}, "5-HT4 receptor [2]": {"biological_target": "T2, 5-HT4 receptor (Rattus norvegicus, UniProt Q62758)", "T2 construct": "The inner smooth muscle tube of the muscularis mucosae is isolated; from tissue; host or cells: rat oesophageal tunica muscularis mucosae", "T2 sequence (Q62758 whole entry)": "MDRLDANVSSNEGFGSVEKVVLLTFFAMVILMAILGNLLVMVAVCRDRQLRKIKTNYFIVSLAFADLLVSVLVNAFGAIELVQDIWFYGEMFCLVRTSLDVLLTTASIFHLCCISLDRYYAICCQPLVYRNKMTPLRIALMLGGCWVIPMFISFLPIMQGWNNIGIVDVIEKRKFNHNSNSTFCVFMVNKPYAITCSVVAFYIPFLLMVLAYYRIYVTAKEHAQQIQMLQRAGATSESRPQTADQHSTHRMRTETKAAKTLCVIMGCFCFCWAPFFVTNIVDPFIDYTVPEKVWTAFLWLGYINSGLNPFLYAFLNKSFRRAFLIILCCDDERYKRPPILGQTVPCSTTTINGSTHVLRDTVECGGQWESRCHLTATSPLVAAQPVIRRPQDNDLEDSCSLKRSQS", "assay": "Rat oesophagus: relaxation of carbachol-contracted tunica muscularis mucosae", "description": "Rat oesophageal tunica muscularis mucosae is set up according to Baxter et. al. Naunyn-Schmiedeberg's Arch. Pharmacol., 343, 439-446 (1991). […] In contrast to the guinea-pig colon model, where the 5-HT4 receptor is neuronally-located, the receptor here is located on the smooth muscle."}, "5-HT4 receptor [3]": {"biological_target": "T1, 5-HT4 receptor", "assay": "Guinea pig colon: 5-HT-evoked contraction of longitudinal muscle-myenteric plexus preparations", "description": "(§1) In some experiments, this tissue was dosed alternately with an approximately equi-effective concentration of the nicotine receptor stimulant, dimethylphenylpiperazinium (DMPP)."}, "[4]": {"system": "5-HT-induced gastric motility", "assay": "5-HT-induced motility in dog gastric pouch", "format": "in vivo", "conditions": "for ED50: Canis lupus familiaris, read-out: ID50 (contractile response to 5-HT)", "description": "4) 5-HT-Induced Motility in Dog Gastric Pouch\nCompounds are tested for inhibition in the in vivo method described in \"Stimulation of canine motility by BRL 24924, a new gastric prokinetic agent\", Bermudez et al, J. Gastrointestinal Motility, 1990, 2(4), 281-286.\nDogs with previously prepared Heidenhain gastric pouches are fasted overnight."}, "5-HT4 receptors": {"system": "5-HT4 receptors", "assay": "Antagonism of 5-HT-evoked tachycardia in anaesthetised piglets", "format": "in vivo, piglet", "description": "5) Antagonism in Anaesthetised Piglets\nIn these experiments, antagonism is assessed against the 5-HT-evoked tachycardia, a response that is mediated by the 5-HT4 receptors. All experiments were in 2-5 day old piglets in which the vagi were sectioned."}, "5-HT4 receptor [5]": {"biological_target": "T1, 5-HT4 receptor", "assay": "Distension-evoked peristalsis in guinea pig isolated ileum", "conditions": "5-HT 10^-7 M", "description": "1) Distension-Evoked Peristalsis in Guinea Pig Isolated Ileum\nThe oral end was connected to a Krebs-filled reservoir and the aboral end to a vertical column open to the air. The intraluminal filling pressure (oral end) and peristaltic pressure (aboral end) were monitored. The threshold pressure for peristalsis was determined by raising the reservoir at increments of 0.5 cm H2 O at 1 min intervals until peristalsis occurred."}, "5-HT4 receptor [6]": {"biological_target": "5-HT4 receptor (Sus scrofa, UniProt Q6Q253)", "sequence (Q6Q253 1-402)": "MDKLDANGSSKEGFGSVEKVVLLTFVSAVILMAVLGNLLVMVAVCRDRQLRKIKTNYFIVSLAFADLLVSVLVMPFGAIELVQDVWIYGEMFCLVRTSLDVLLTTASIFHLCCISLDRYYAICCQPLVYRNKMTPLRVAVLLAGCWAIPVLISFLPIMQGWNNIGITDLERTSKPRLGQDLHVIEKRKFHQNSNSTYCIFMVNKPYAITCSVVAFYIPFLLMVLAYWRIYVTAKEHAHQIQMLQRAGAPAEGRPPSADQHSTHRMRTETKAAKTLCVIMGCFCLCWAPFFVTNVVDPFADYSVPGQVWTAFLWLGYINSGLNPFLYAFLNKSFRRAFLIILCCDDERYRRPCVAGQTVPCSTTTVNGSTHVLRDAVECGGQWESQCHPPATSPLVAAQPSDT", "assay": "Piglet atria spontaneous beating screen", "description": "Compounds are tested in the piglet atria spontaneous beating screen (Naunyn-Schmiedeberg's Arch. Pharmacol 342, 619-622)."}, "5-HT1D": {"biological_target": "5-HT1D", "assay": "Receptor binding studies: 5-HT1D"}, "anxiolytic activity": {"system": "anxiolytic activity", "assay": "Social interaction test in rats", "format": "in vivo, rat", "conditions": "0.01, 1, 10 mg.kg^-1", "description": "IN VIVO TESTING FOR ANXIOLYTIC ACTIVITY\nSocial Interaction Test in Rats\nRats (male, Sprague Dawleys, Charles River, 250-300 g) are housed in groups of eight in a holding room for 5 days. They are then housed singly in a room adjacent to the experimental room for 4 days prior to the experimental day. On the experimental day rats are administered vehicle, test compound or a benzodiazepine anxiolytic, chlordiazepoxide, p.o. in pairs (n=8-16), at 15 minute intervals beginning at 10.00 a.m. […] The box is made of white perspex 54 cm×37 cm×26 cm with a transparent perspex front side and no lid. The floor is divided up into 24 squares and the box is brightly lit (115 lux). Active social interactive behaviours (grooming, sniffing, climbing over or under, following, biting, mounting and boxing) are scored blind for the next 15 min by remote video monitoring to give total interaction scores. The number of squares crossed by each rat is also scored and summed. After the end of each test the box is carefully wiped."}, "nicotine receptor": {"system": "nicotine receptor", "assay": "Guinea pig colon: DMPP-evoked contraction (nicotinic receptor agonist)", "conditions": "10^-5 M", "description": "as §1"}, "[7]": {"system": "large bowel motility and fluid secretion", "assay": "Faecal pellet output and fluid content in conscious fed mice (normal and 5-HTP-treated)", "format": "in vivo, mouse", "description": "2) Antagonism in Conscious Fed Mice\nA model was developed to examine the effect of 5-HT4 receptor antagonists on large bowel motility (faecal pellet output, FPO) and fluid secretion (pellet wet/dry weight) during `fed` conditions. The antagonists are studied in normal mice (to determine adverse effects, eg constipation)and in mice with functional diarrhoea caused by 5-HTP [Banner S E, Smith M I, Bywater D and Sanger G J (1993), Br J Pharmacol, 110, 17 P, and Banner S E, Smith M I and Sanger G J (1993) Br J Pharmacol; 110, 135 P]. Faecal pellets were collected at 10 min intervals so that their number and wet/dry weights could be determined."}, "Alpha1": {"biological_target": "Alpha1", "assay": "Receptor binding studies: Alpha1"}, "[8]": {"biological_target": "piglet hippocampal 5-HT4 receptors (Sus scrofa, UniProt Q6Q253)", "sequence (Q6Q253 1-402)": "as above", "assay": "Binding to piglet hippocampal 5-HT4 receptors (125I-SB-207710)", "conditions": "inhibition of 125I-SB-207710 binding in hippocampus"}}, "note": "Read-outs that look alike come from different tables or passages of the source.", "data": [{"smiles": "CCCCN1CCC(CNC(=O)c2c3n(c4ccccc24)CCCO3)CC1", "note": "[SB-207266-A, N-[(1-^n Butyl-4-piperidyl)methyl]-3,4-dihydro-2 H-[1,3]oxazino[3,2-a]indole-10-Carboxamide]", "values": [{"measurement": "effect on BIMU 1 concentration-response", "setting": "5-HT4 receptor [1]", "value": "reduced the maximum response to BIMU 1, without causing a prior right-ward shift in the concentration-response curve"}, {"measurement": "antagonism of 5-HT response (in words)", "setting": "5-HT4 receptor [2]", "value": "concentration-dependently acted as a non-surmountable antagonist and reduced the maximum response evoked by 5-HT"}, {"measurement": "Kb", "setting": "5-HT4 receptor [2]; from data with the lowest effective concentration, no reliable pA2 estimate possible", "value": "≤ 0.1", "unit": "nM"}, {"measurement": "Kb", "setting": "5-HT4 receptor [3]", "value": 0.0398, "unit": "nM"}, {"measurement": "effect on maximum response to 5-HT", "setting": "5-HT4 receptor [3]; 3×10^-8 M and above", "value": "the maximum response to 5-HT was reduced in a concentration-dependent manner"}, {"measurement": "effect on 5-HT concentration-response curve", "setting": "5-HT4 receptor [3]; 10^-10-10^-8 M, n=6", "value": "parallel rightward shift of the 5-HT curve with no effect on the maximum response"}, {"measurement": "slope (pA2)", "setting": "5-HT4 receptor [3]; 10^-10-10^-8 M, n=6", "value": "not significantly different from unity"}, {"measurement": "recovery time of responses to 5-HT", "setting": "5-HT4 receptor [3]; at the highest concentrations (which reduce maximum 5-HT-evoked contractions), washout", "value": "≤ 90", "unit": "min"}, {"measurement": "reversibility of antagonism", "setting": "5-HT4 receptor [3]; upon washout", "value": "could be reversed upon washout"}, {"measurement": "duration of action (in words)", "setting": "[4]; 1 and 3 ug.kg^-1 iv", "value": "variable and apparently reversible"}, {"measurement": "duration of antagonism", "setting": "[4]; 10 and 100 ug.kg^-1 iv, longer than the experiment", "value": "> 285", "unit": "min"}, {"measurement": "ED50", "setting": "[4]; iv", "value": 1.3, "unit": "µg/kg"}, {"measurement": "ED50", "setting": "[4]; po", "value": 9.6, "unit": "µg/kg"}, {"measurement": "effect on basal motility", "setting": "[4]; any dose, iv and po", "value": "no effect"}, {"measurement": "antagonism of 5-HT-evoked tachycardia", "setting": "5-HT4 receptors; 0.1, 0.3 or 1.0 ugkg^-1 iv, n=2 each", "value": "antagonised the 5-HT-evoked tachycardia in a dose-dependent manner"}, {"measurement": "recovery from antagonism", "setting": "5-HT4 receptors; 0.3, 1.0 ugkg^-1 i.v., over the duration of the experiment", "value": "incomplete"}, {"measurement": "preparations in which the sensitising effect of 5-HT was abolished", "setting": "5-HT4 receptor [5]; 10^-9 M", "value": "3/3"}, {"measurement": "tissues in which the action of 5-HT was antagonised", "setting": "5-HT4 receptor [5]; 10^-10 M", "value": "3/4"}, {"measurement": "tissues in which there was no ability to antagonise the sensitising effect of 5-HT", "setting": "5-HT4 receptor [5]; 10^-11 M", "value": "4/4"}, {"measurement": "effect on 5-HT curve", "setting": "5-HT4 receptor [6]; 10^-7 M", "value": "shifted the curve to the right with an apparent reduction in the maximum response"}, {"measurement": "estimated pKb (-log10 Kb)", "setting": "5-HT4 receptor [6]; n=2", "value": 10.1}, {"measurement": "pKd", "setting": "5-HT1D", "value": "< 5.00"}, {"measurement": "locomotion during the test", "setting": "anxiolytic activity", "value": "not accompanied by any alteration in locomotion"}, {"measurement": "total interaction scores", "setting": "anxiolytic activity; 1 h after administration", "value": "Significantly increased total interaction scores"}, {"measurement": "effect on DMPP-evoked contractions", "setting": "nicotine receptor", "value": "unaffected"}, {"measurement": "duration of action", "setting": "[7]; 100 ug.kg^-1, dosed 2.5 hours before 5-HTP", "value": "effective"}, {"measurement": "duration of action", "setting": "[7]; 100 ug.kg^-1, pre-dosed 6 hours before 5-HTP", "value": "without effect"}, {"measurement": "effect on 5-HTP-evoked increase in FPO", "setting": "[7]; 0.1 to 10 ug.kg^-1 s.c., 5-HTP 10 mg kg^-1 s.c.", "value": "dose-dependently prevented the 5-HTP-evoked increase in FPO"}, {"measurement": "effect on fluid secretion evoked by 5-HTP", "setting": "[7]; 5-HTP 10 mg kg^-1 s.c.", "value": "prevented"}, {"measurement": "effect on watery diarrhoea caused by 5-HTP", "setting": "[7]; 5-HTP 50 mg.kg^-1", "value": "reduce the watery diarrhoea"}, {"measurement": "effect on the effects of 5-HTP, oral", "setting": "[7]; 10-1000 ug.kg^-1 po, 30 min prior to 5-HTP", "value": "greatly reduced the effects of 5-HTP"}, {"measurement": "effect on FPO or fluid content in normal mice", "setting": "[7]; s.c. or po, not pretreated with 5-HTP", "value": "did not affect either FPO or their fluid content in normal mice"}, {"measurement": "pKd", "setting": "Alpha1", "value": "< 5.52"}, {"measurement": "pKi", "setting": "[8]", "value": "9.48±0.06"}]}]}
